Test results from patent publication US8367086B1, “Process and product for inhibiting or preventing bacterial infections” (S.S. Steiner, Inc., priority 2004, dated 2013).
Converted amounts (≈) assume the structure as drawn.

Columns and labels:
Experiment in all cases: minimum inhibitory concentration (MIC) method
Assay type in all cases: cell-based
B. megaterium = settings: 37° C. 24 hours
Description: (§1) Another method of determining antimicrobial activity is to assess the Minimum inhibitory concentration (MIC) of the composition under test. […] Thereafter, increased concentrations will have a limiting effect on growth, until the concentration is reached where no growth relative to the control is observed. That point of no growth is the minimum inhibitory concentration. […] A positive control with the bacterium alone was prepared as well as an ethanol control. The tubes were incubated at 37° C. for 24 hours and growth of the bacterium was determined by observing the change in turbidity.

B. subtilis = settings: 37° C. 24 hours
Description: as §1

S. salivarius = settings: 37° C. 24 hours
Description: as §1

S. saprophyticus = settings: Staphylococcus saprophyticus; exp 1; 37° C. 24 hours; read-out: MIC, agent alone
Description: as §1, with “turbidity. […] Since the filing of the original application Ser. […] Pseudomonas fluorescens, Pseudomonas aeruginosa, Proteus vulgaris, Serratia marcescens, Proteus mirabilis and Enterobacter clocae.” for “turbidity.”

**Q.** For `COc1cc(O)c(CC=C(C)C)c(O)c1C(=O)/C=C/c1ccc(O)cc1` [X, xanthohumol], which MIC (B. megaterium; Priestia megaterium, exp 2, read-out: MIC, agent alone) is on record?
**A.** Its MIC is 10 µg/mL (≈ 28.2 µM).

**Q.** And the “MIC, agent alone” value (B. megaterium; exp 1)?
**A.** Its value is 10 µg/mL (≈ 28.2 µM).

**Q.** And the MIC (B. subtilis; Bacillus subtilis, exp 1, read-out: MIC, agent alone)?
**A.** The MIC was > 1 µg/mL.

**Q.** What about the “MIC, agent alone” value (B. subtilis; exp 1) of the same compound?
**A.** The value was >1 µg/mL.

**Q.** What about the “MIC, agent alone” value (B. subtilis; exp 2) of the same compound?
**A.** Its value is >1 µg/mL.

**Q.** What about the MIC (S. salivarius; Streptococcus salivarius, exp 1, read-out: MIC, agent alone) of the same compound?
**A.** Its MIC is < 10 µg/mL.

**Q.** And the “MIC, agent alone” value (S. salivarius; exp 2)?
**A.** The value was <10 µg/mL.

**Q.** What about the MIC (S. saprophyticus) of the same compound?
**A.** The MIC was 1 to 10 µg/mL (≈ 2.82 to 28.2 µM).
